Measured values reported in ChEMBL document CHEMBL5724914, “Linking interpersonal differences in gut microbiota composition and drug biotransformation activity” (2024).

assay: (§1) The drug is tested on Z-026 corresponding to metagenome with ENA study accession number: PRJEB37062 and ENA sample accession number: ERS12561825 for biotransformation under anaerobic condition. The drug concentrations were measured over 9 timepoints collected between 0 and 24 hours of incubation by liquid-chromatography-coupled mass spectrometry (LC–MS); conditions: 2 µM
Note: call rule not given here.

Compound | Bacterial Biotransformation
CCc1nc(N)nc(N)c1-c1ccc(Cl)cc1 [PYRIMETHAMINE] | Compound NOT metabolized
CCCC(=O)Nc1ccc(OCC(O)CNC(C)C)c(C(C)=O)c1 (stereo not given) [ACEBUTOLOL] | Compound NOT metabolized
NS(=O)(=O)c1cc2c(cc1Cl)N=C(CSCc1ccccc1)NS2(=O)=O [BENZTHIAZIDE] | Compound NOT metabolized
CN1CCN(C(=O)O[C@H]2c3nccnc3C(=O)N2c2ccc(Cl)cn2)CC1 [ESZOPICLONE] | Compound NOT metabolized

assay: as §1, with “Z-012” for “Z-026”, “ERS12561812” for “ERS12561825”; conditions: 2 µM

Compound | Bacterial Biotransformation
CCc1nc(N)nc(N)c1-c1ccc(Cl)cc1 [PYRIMETHAMINE] | Compound NOT metabolized
CCCC(=O)Nc1ccc(OCC(O)CNC(C)C)c(C(C)=O)c1 (stereo not given) [ACEBUTOLOL] | Compound NOT metabolized
NS(=O)(=O)c1cc2c(cc1Cl)N=C(CSCc1ccccc1)NS2(=O)=O [BENZTHIAZIDE] | Compound NOT metabolized
CN1CCN(C(=O)O[C@H]2c3nccnc3C(=O)N2c2ccc(Cl)cn2)CC1 [ESZOPICLONE] | Compound NOT metabolized

assay: (§2) The drug is tested on Z-011 corresponding to mouse gut metagenome with ENA study accession number: PRJEB37062 and ENA sample accession number: ERS12561811 for biotransformation under anaerobic condition. The drug concentrations were measured over 9 timepoints collected between 0 and 24 hours of incubation by liquid-chromatography-coupled mass spectrometry (LC–MS); conditions: 2 µM

Compound | Bacterial Biotransformation
CCc1nc(N)nc(N)c1-c1ccc(Cl)cc1 [PYRIMETHAMINE] | Compound NOT metabolized
CCCC(=O)Nc1ccc(OCC(O)CNC(C)C)c(C(C)=O)c1 (stereo not given) [ACEBUTOLOL] | Compound NOT metabolized
NS(=O)(=O)c1cc2c(cc1Cl)N=C(CSCc1ccccc1)NS2(=O)=O [BENZTHIAZIDE] | Compound NOT metabolized
CN1CCN(C(=O)O[C@H]2c3nccnc3C(=O)N2c2ccc(Cl)cn2)CC1 [ESZOPICLONE] | Compound NOT metabolized

assay: as §1, with “Z-010” for “Z-026”, “ERS12561810” for “ERS12561825”; conditions: 2 µM

Compound | Bacterial Biotransformation
CCc1nc(N)nc(N)c1-c1ccc(Cl)cc1 [PYRIMETHAMINE] | Compound NOT metabolized
CCCC(=O)Nc1ccc(OCC(O)CNC(C)C)c(C(C)=O)c1 (stereo not given) [ACEBUTOLOL] | Compound NOT metabolized
NS(=O)(=O)c1cc2c(cc1Cl)N=C(CSCc1ccccc1)NS2(=O)=O [BENZTHIAZIDE] | Compound NOT metabolized
CN1CCN(C(=O)O[C@H]2c3nccnc3C(=O)N2c2ccc(Cl)cn2)CC1 [ESZOPICLONE] | Compound NOT metabolized

assay: as §2, with “Z-002” for “Z-011”, “rabbit” for “mouse”, “ERS12561802” for “ERS12561811”; conditions: 2 µM

Compound | Bacterial Biotransformation
CCc1nc(N)nc(N)c1-c1ccc(Cl)cc1 [PYRIMETHAMINE] | Compound metabolized
CCCC(=O)Nc1ccc(OCC(O)CNC(C)C)c(C(C)=O)c1 (stereo not given) [ACEBUTOLOL] | Compound metabolized
NS(=O)(=O)c1cc2c(cc1Cl)N=C(CSCc1ccccc1)NS2(=O)=O [BENZTHIAZIDE] | Compound metabolized
CN1CCN(C(=O)O[C@H]2c3nccnc3C(=O)N2c2ccc(Cl)cn2)CC1 [ESZOPICLONE] | Compound NOT metabolized

assay: as §2, with “WLS-240” for “Z-011”, “human” for “mouse”, “ERS12561773” for “ERS12561811”; conditions: 2 µM

Compound | Bacterial Biotransformation
CCc1nc(N)nc(N)c1-c1ccc(Cl)cc1 [PYRIMETHAMINE] | Compound metabolized
CCCC(=O)Nc1ccc(OCC(O)CNC(C)C)c(C(C)=O)c1 (stereo not given) [ACEBUTOLOL] | Compound metabolized
NS(=O)(=O)c1cc2c(cc1Cl)N=C(CSCc1ccccc1)NS2(=O)=O [BENZTHIAZIDE] | Compound NOT metabolized
CN1CCN(C(=O)O[C@H]2c3nccnc3C(=O)N2c2ccc(Cl)cn2)CC1 [ESZOPICLONE] | Compound NOT metabolized

assay: as §2, with “WLS-170” for “Z-011”, “human” for “mouse”, “ERS12561762” for “ERS12561811”; conditions: 2 µM

Compound | Bacterial Biotransformation
CCc1nc(N)nc(N)c1-c1ccc(Cl)cc1 [PYRIMETHAMINE] | Compound NOT metabolized
CCCC(=O)Nc1ccc(OCC(O)CNC(C)C)c(C(C)=O)c1 (stereo not given) [ACEBUTOLOL] | Compound metabolized
NS(=O)(=O)c1cc2c(cc1Cl)N=C(CSCc1ccccc1)NS2(=O)=O [BENZTHIAZIDE] | Compound NOT metabolized
CN1CCN(C(=O)O[C@H]2c3nccnc3C(=O)N2c2ccc(Cl)cn2)CC1 [ESZOPICLONE] | Compound NOT metabolized

assay: as §2, with “WLS-098” for “Z-011”, “human” for “mouse”, “ERS12561754” for “ERS12561811”; conditions: 2 µM

Compound | Bacterial Biotransformation
CCc1nc(N)nc(N)c1-c1ccc(Cl)cc1 [PYRIMETHAMINE] | Compound metabolized
CCCC(=O)Nc1ccc(OCC(O)CNC(C)C)c(C(C)=O)c1 (stereo not given) [ACEBUTOLOL] | Compound metabolized
NS(=O)(=O)c1cc2c(cc1Cl)N=C(CSCc1ccccc1)NS2(=O)=O [BENZTHIAZIDE] | Compound NOT metabolized
CN1CCN(C(=O)O[C@H]2c3nccnc3C(=O)N2c2ccc(Cl)cn2)CC1 [ESZOPICLONE] | Compound NOT metabolized

assay: as §2, with “WLS-039” for “Z-011”, “human” for “mouse”, “ERS12561746” for “ERS12561811”; conditions: 2 µM

Compound | Bacterial Biotransformation
CCc1nc(N)nc(N)c1-c1ccc(Cl)cc1 [PYRIMETHAMINE] | Compound NOT metabolized
CCCC(=O)Nc1ccc(OCC(O)CNC(C)C)c(C(C)=O)c1 (stereo not given) [ACEBUTOLOL] | Compound NOT metabolized
NS(=O)(=O)c1cc2c(cc1Cl)N=C(CSCc1ccccc1)NS2(=O)=O [BENZTHIAZIDE] | Compound NOT metabolized
CN1CCN(C(=O)O[C@H]2c3nccnc3C(=O)N2c2ccc(Cl)cn2)CC1 [ESZOPICLONE] | Compound NOT metabolized

assay: as §2, with “WLS-038” for “Z-011”, “human” for “mouse”, “ERS12561745” for “ERS12561811”; conditions: 2 µM

Compound | Bacterial Biotransformation
CCc1nc(N)nc(N)c1-c1ccc(Cl)cc1 [PYRIMETHAMINE] | Compound NOT metabolized
CCCC(=O)Nc1ccc(OCC(O)CNC(C)C)c(C(C)=O)c1 (stereo not given) [ACEBUTOLOL] | Compound NOT metabolized
NS(=O)(=O)c1cc2c(cc1Cl)N=C(CSCc1ccccc1)NS2(=O)=O [BENZTHIAZIDE] | Compound NOT metabolized
CN1CCN(C(=O)O[C@H]2c3nccnc3C(=O)N2c2ccc(Cl)cn2)CC1 [ESZOPICLONE] | Compound NOT metabolized

assay: as §2, with “WLS-027” for “Z-011”, “human” for “mouse”, “ERS12561744” for “ERS12561811”; conditions: 2 µM

Compound | Bacterial Biotransformation
CCc1nc(N)nc(N)c1-c1ccc(Cl)cc1 [PYRIMETHAMINE] | Compound NOT metabolized
CCCC(=O)Nc1ccc(OCC(O)CNC(C)C)c(C(C)=O)c1 (stereo not given) [ACEBUTOLOL] | Compound NOT metabolized
NS(=O)(=O)c1cc2c(cc1Cl)N=C(CSCc1ccccc1)NS2(=O)=O [BENZTHIAZIDE] | Compound NOT metabolized
CN1CCN(C(=O)O[C@H]2c3nccnc3C(=O)N2c2ccc(Cl)cn2)CC1 [ESZOPICLONE] | Compound NOT metabolized

assay: as §2, with “WLS-010” for “Z-011”, “human” for “mouse”, “ERS12561743” for “ERS12561811”; conditions: 2 µM

Compound | Bacterial Biotransformation
CCc1nc(N)nc(N)c1-c1ccc(Cl)cc1 [PYRIMETHAMINE] | Compound NOT metabolized
CCCC(=O)Nc1ccc(OCC(O)CNC(C)C)c(C(C)=O)c1 (stereo not given) [ACEBUTOLOL] | Compound NOT metabolized
NS(=O)(=O)c1cc2c(cc1Cl)N=C(CSCc1ccccc1)NS2(=O)=O [BENZTHIAZIDE] | Compound NOT metabolized
CN1CCN(C(=O)O[C@H]2c3nccnc3C(=O)N2c2ccc(Cl)cn2)CC1 [ESZOPICLONE] | Compound NOT metabolized

assay: as §2, with “WLS-007” for “Z-011”, “human” for “mouse”, “ERS12561742” for “ERS12561811”; conditions: 2 µM

Compound | Bacterial Biotransformation
CCc1nc(N)nc(N)c1-c1ccc(Cl)cc1 [PYRIMETHAMINE] | Compound metabolized
CCCC(=O)Nc1ccc(OCC(O)CNC(C)C)c(C(C)=O)c1 (stereo not given) [ACEBUTOLOL] | Compound NOT metabolized
NS(=O)(=O)c1cc2c(cc1Cl)N=C(CSCc1ccccc1)NS2(=O)=O [BENZTHIAZIDE] | Compound NOT metabolized
CN1CCN(C(=O)O[C@H]2c3nccnc3C(=O)N2c2ccc(Cl)cn2)CC1 [ESZOPICLONE] | Compound NOT metabolized

conditions: human gut metagenome, 24 h, 2 µM

Compound | Bacterial Biotransformation
CCc1nc(N)nc(N)c1-c1ccc(Cl)cc1 [PYRIMETHAMINE] | Compound NOT metabolized
CCCC(=O)Nc1ccc(OCC(O)CNC(C)C)c(C(C)=O)c1 (stereo not given) [ACEBUTOLOL] | Compound metabolized
NS(=O)(=O)c1cc2c(cc1Cl)N=C(CSCc1ccccc1)NS2(=O)=O [BENZTHIAZIDE] | Compound NOT metabolized
CN1CCN(C(=O)O[C@H]2c3nccnc3C(=O)N2c2ccc(Cl)cn2)CC1 [ESZOPICLONE] | Compound NOT metabolized

conditions: human gut metagenome, 24 h, 2 µM; remark: another data set of the same source

Compound | Bacterial Biotransformation
CCc1nc(N)nc(N)c1-c1ccc(Cl)cc1 [PYRIMETHAMINE] | Compound NOT metabolized
CCCC(=O)Nc1ccc(OCC(O)CNC(C)C)c(C(C)=O)c1 (stereo not given) [ACEBUTOLOL] | Compound metabolized
NS(=O)(=O)c1cc2c(cc1Cl)N=C(CSCc1ccccc1)NS2(=O)=O [BENZTHIAZIDE] | Compound NOT metabolized
CN1CCN(C(=O)O[C@H]2c3nccnc3C(=O)N2c2ccc(Cl)cn2)CC1 [ESZOPICLONE] | Compound NOT metabolized

conditions: human gut metagenome, 24 h, 2 µM; remark: another data set of the same source

Compound | Bacterial Biotransformation
CCc1nc(N)nc(N)c1-c1ccc(Cl)cc1 [PYRIMETHAMINE] | Compound NOT metabolized
CCCC(=O)Nc1ccc(OCC(O)CNC(C)C)c(C(C)=O)c1 (stereo not given) [ACEBUTOLOL] | Compound metabolized
NS(=O)(=O)c1cc2c(cc1Cl)N=C(CSCc1ccccc1)NS2(=O)=O [BENZTHIAZIDE] | Compound NOT metabolized
CN1CCN(C(=O)O[C@H]2c3nccnc3C(=O)N2c2ccc(Cl)cn2)CC1 [ESZOPICLONE] | Compound NOT metabolized

conditions: human gut metagenome, 24 h, 2 µM; remark: another data set of the same source

Compound | Bacterial Biotransformation
CCc1nc(N)nc(N)c1-c1ccc(Cl)cc1 [PYRIMETHAMINE] | Compound NOT metabolized
CCCC(=O)Nc1ccc(OCC(O)CNC(C)C)c(C(C)=O)c1 (stereo not given) [ACEBUTOLOL] | Compound metabolized
NS(=O)(=O)c1cc2c(cc1Cl)N=C(CSCc1ccccc1)NS2(=O)=O [BENZTHIAZIDE] | Compound NOT metabolized
CN1CCN(C(=O)O[C@H]2c3nccnc3C(=O)N2c2ccc(Cl)cn2)CC1 [ESZOPICLONE] | Compound NOT metabolized

conditions: human gut metagenome, 24 h, 2 µM; remark: another data set of the same source

Compound | Bacterial Biotransformation
CCc1nc(N)nc(N)c1-c1ccc(Cl)cc1 [PYRIMETHAMINE] | Compound NOT metabolized
CCCC(=O)Nc1ccc(OCC(O)CNC(C)C)c(C(C)=O)c1 (stereo not given) [ACEBUTOLOL] | Compound metabolized
NS(=O)(=O)c1cc2c(cc1Cl)N=C(CSCc1ccccc1)NS2(=O)=O [BENZTHIAZIDE] | Compound NOT metabolized
CN1CCN(C(=O)O[C@H]2c3nccnc3C(=O)N2c2ccc(Cl)cn2)CC1 [ESZOPICLONE] | Compound NOT metabolized

conditions: human gut metagenome, 24 h, 2 µM; remark: another data set of the same source

Compound | Bacterial Biotransformation
CCc1nc(N)nc(N)c1-c1ccc(Cl)cc1 [PYRIMETHAMINE] | Compound metabolized
CCCC(=O)Nc1ccc(OCC(O)CNC(C)C)c(C(C)=O)c1 (stereo not given) [ACEBUTOLOL] | Compound metabolized
NS(=O)(=O)c1cc2c(cc1Cl)N=C(CSCc1ccccc1)NS2(=O)=O [BENZTHIAZIDE] | Compound NOT metabolized
CN1CCN(C(=O)O[C@H]2c3nccnc3C(=O)N2c2ccc(Cl)cn2)CC1 [ESZOPICLONE] | Compound NOT metabolized

conditions: human gut metagenome, 24 h, 2 µM; remark: another data set of the same source

Compound | Bacterial Biotransformation
CCc1nc(N)nc(N)c1-c1ccc(Cl)cc1 [PYRIMETHAMINE] | Compound NOT metabolized
CCCC(=O)Nc1ccc(OCC(O)CNC(C)C)c(C(C)=O)c1 (stereo not given) [ACEBUTOLOL] | Compound metabolized
NS(=O)(=O)c1cc2c(cc1Cl)N=C(CSCc1ccccc1)NS2(=O)=O [BENZTHIAZIDE] | Compound NOT metabolized
CN1CCN(C(=O)O[C@H]2c3nccnc3C(=O)N2c2ccc(Cl)cn2)CC1 [ESZOPICLONE] | Compound NOT metabolized
